Structures can show the parent of a compound that is named as a salt. Some results are limits rather than exact numbers.

Our source for the IC50 values is patent US9085517B2, “Sulfonamide derivatives” (Pfizer Limited, priority 2011, dated 2015).

T1 sequence (Q15858 whole entry): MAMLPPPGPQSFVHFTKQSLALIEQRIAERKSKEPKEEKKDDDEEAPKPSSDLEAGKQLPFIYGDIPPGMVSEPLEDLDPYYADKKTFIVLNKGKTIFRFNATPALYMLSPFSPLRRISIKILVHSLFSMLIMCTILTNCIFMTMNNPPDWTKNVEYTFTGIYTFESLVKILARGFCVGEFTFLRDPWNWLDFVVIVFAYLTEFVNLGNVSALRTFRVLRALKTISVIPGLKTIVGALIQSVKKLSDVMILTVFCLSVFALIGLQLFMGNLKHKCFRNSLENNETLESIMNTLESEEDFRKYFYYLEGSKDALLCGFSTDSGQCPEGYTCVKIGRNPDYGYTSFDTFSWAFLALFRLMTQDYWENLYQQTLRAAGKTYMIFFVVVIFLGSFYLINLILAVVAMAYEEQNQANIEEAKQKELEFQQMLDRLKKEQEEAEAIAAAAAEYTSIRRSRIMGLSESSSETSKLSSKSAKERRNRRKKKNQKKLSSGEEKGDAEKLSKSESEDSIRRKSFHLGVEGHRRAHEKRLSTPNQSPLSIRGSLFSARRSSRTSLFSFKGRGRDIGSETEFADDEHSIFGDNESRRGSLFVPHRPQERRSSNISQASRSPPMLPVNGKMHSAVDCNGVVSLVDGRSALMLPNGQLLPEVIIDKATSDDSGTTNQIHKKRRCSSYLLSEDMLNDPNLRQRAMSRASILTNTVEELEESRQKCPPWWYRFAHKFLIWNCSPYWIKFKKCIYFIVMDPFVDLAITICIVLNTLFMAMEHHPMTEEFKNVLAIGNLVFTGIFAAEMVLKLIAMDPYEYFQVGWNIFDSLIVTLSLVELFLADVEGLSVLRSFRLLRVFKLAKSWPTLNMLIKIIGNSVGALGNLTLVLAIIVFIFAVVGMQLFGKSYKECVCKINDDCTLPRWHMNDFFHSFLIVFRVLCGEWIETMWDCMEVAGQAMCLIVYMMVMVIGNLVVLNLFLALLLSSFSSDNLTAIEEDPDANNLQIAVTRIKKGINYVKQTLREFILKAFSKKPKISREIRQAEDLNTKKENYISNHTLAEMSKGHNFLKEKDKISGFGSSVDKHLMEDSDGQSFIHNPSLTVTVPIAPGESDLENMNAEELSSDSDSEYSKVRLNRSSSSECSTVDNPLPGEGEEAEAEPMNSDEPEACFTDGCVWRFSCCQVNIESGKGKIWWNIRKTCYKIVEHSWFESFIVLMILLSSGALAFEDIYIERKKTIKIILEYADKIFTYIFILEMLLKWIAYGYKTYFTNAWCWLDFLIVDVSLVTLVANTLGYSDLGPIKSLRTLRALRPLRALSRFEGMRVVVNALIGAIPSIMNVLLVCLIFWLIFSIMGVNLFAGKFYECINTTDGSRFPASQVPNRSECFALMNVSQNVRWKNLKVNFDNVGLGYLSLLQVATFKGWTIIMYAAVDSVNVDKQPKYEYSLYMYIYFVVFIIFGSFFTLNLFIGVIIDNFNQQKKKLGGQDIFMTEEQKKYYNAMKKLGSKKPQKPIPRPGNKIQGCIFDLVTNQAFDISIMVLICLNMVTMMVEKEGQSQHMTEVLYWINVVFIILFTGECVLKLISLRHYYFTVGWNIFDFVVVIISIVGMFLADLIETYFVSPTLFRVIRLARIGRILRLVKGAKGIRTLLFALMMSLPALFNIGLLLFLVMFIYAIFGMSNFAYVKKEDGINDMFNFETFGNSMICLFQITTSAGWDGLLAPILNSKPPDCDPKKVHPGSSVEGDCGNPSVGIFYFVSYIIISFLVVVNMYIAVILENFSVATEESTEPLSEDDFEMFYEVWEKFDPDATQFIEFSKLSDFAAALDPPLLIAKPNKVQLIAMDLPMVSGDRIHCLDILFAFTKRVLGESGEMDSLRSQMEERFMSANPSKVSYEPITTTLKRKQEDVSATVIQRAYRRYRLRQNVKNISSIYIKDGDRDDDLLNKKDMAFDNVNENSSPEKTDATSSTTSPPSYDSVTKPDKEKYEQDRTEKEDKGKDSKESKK

The experiment has as its target T1, Nav1.7 (or SCN9A) channel (Homo sapiens, UniProt Q15858).
T1 construct: expressed in transfected cells
In words: Nav1.7 (hSCN9A) block, whole-cell electrophysiology on the PatchXpress platform. The format is cell-based. Conditions: estimated IC50 from single point electrophysiology data, HEK cells stably expressing hSCN9A, prepulse to V1/2, read-out: Nav1.7 EIC50. As to the method: The ability of the compounds of formula (I) to block the Nav1.7 (or SCN9A) channel were measured using the assay described below.
Human Embryonic Kidney (HEK) cells were transfected with an hSCN9A construct using lipofectamine reagent (Invitrogen), using standard techniques. Cells stably expressing the hSCN9A constructs were identified by their resistance to G-418 (400 μg/ml). Clones were screened for expression using the whole-cell voltage-clamp technique.
HEK cells stably transfected with hSCN9A were maintained in DMEM medium supplemented with 10% heat-inactivated fetal bovine serum and 400 μg/ml G-418 in an incubator at 37° C. with a humidified atmosphere of 10% CO2. For HTS, cells were harvested from flasks by trypsinization and replated in an appropriate multi-well plate (typically 96 or 384 wells/plate) such that confluence would be achieved within 24 hours of plating. For electrophysiological studies, cells were removed from the culture flask by brief trypsinization and re-plated at low density onto glass cover slips. Cells were typically used for electrophysiological experiments within 24 to 72 hours after plating.
Cover slips containing HEK cells expressing hSCN9A were placed in a bath on the stage of an inverted microscope and perfused (approximately 1 ml/minutes) with extracellular solution of the following composition: 138 mM NaCl, 2 mM CaCl2, 5.4 mM KCl, 1 mM MgCl2, 10 mM glucose, and 10 mM HEPES, pH 7.4, with NaOH. […] The osmolarity of the extracellular and intracellular solutions was 300 mOsm/kg and 295 mOsm/kg, respectively. All recordings were made at room temperature (22-24° C.) using AXOPATCH 200B amplifiers and PCLAMP software (Axon Instruments, Burlingame, Calif.).
hSCN9A currents in HEK cells were measured using the whole-cell configuration of the patch-clamp technique (Hamill et al., 1981). Uncompensated series resistance was typically 2 to 5 mega ohms and >85% series resistance compensation was routinely achieved. As a result, voltage errors were negligible and no correction was applied. Current records were acquired at 20 to 50 KHz and filtered at 5 to 10 KHz.
HEK cells stably transfected with hSCN9A were viewed under Hoffman contrast optics and placed in front of an array of flow pipes emitting either control or compound-containing extracellular solutions. All compounds were dissolved in dimethyl sulfoxide to make 10 mM stock solutions, which were then diluted into extracellular solution to attain the final concentrations desired. […] The voltage-dependence of inactivation was determined by applying a series of depolarizing prepulses (8 sec long in 10 mV increments) from a negative holding potential. The voltage was then immediately stepped to 0 mV to assess the magnitude of the sodium current. Currents elicited at 0 mV were plotted as a function of prepulse potential to allow estimation of the voltage at which 50% of the channels were inactivated (midpoint of inactivation or V1/2). Compounds were tested for their ability to inhibit hSCN9A sodium channels by activating the channel with a 20 msec voltage step to 0 mV following an 8 second conditioning prepulse to the empirically determined V1/2. Compound effect (% inhibition) was determined by difference in current amplitude before and after application of test compounds. For ease of comparison, “estimated IC-50” (EIC50) values were calculated from single point electrophysiology data by the following equation, (tested concentration, uM)×(100−% inhibition/% inhibition). Inhibition values <20% and >80% were excluded from the calculation.
Electrophysiological assays were conducted with PatchXpress 7000 hardware and associated software (Molecular Devices Corp). All assay buffers and solutions were identical to those used in conventional whole-cell voltage clamp experiments described above. hSCN9A cells were grown as above to 50%-80% confluency and harvested by trypsinization. […]
For the molecule `O=C(NS(=O)(=O)N1CC(F)(F)C1)c1cc(Cl)c(COc2cnc(C3CC3)c(Cl)c2)cc1F` [Example 16, 5-chloro-4-{[(5-chloro-6-cyclopropylpyridin-3-yl)oxy]methyl}-N-[(3,3-difluoroazetidin-1-yl)sulfonyl]-2-fluorobenzamide], the IC50 was 270 nM. As for `CN(C)S(=O)(=O)NC(=O)c1cc(F)c(COc2ccc(F)c(Cl)c2)cc1F` [Example 11, 4-[(3-chloro-4-fluorophenoxy)methyl]-N-[(dimethylamino)sulfonyl]-2,5-difluorobenzamide], the IC50 is 580 nM.

Take `CN(C)S(=O)(=O)NC(=O)c1cc(F)c(COc2ccc(Cl)c(Cl)c2)cc1F` [Example 10, 4-[(3,4-dichlorophenoxy)methyl]-N-[(dimethylamino)sulfonyl]-2,5-difluorobenzamide]: the IC50 was 350 nM. As for `CN(C)S(=O)(=O)NC(=O)c1cc(F)c(COc2ccc(Cl)c(C(F)(F)F)c2)cc1F` [Example 6, 4-{[4-chloro-3-(trifluoromethyl)phenoxy]methyl}-N-[(dimethylamino)sulfonyl]-2,5-difluorobenzamide], the figure is 200 nM. As for `CN(C)S(=O)(=O)NC(=O)c1cc(F)c(COc2ccc(C(F)(F)F)c(Cl)c2)cc1F` [Example 2, 4-{[3-Chloro-4-(trifluoromethyl)phenoxy]methyl}-N-[(dimethylamino)sulfonyl]-2,5-difluorobenzamide], the figure is 110 nM; as for `CN(C)S(=O)(=O)NC(=O)c1cc(F)c(COc2ccc(C#N)c(Cl)c2)cc1F` [Example 9, 4-[(3-chloro-4-cyanophenoxy)methyl]-N-[(dimethylamino)sulfonyl]-2,5-difluorobenzamide], above 3000 nM. As to `CN(C)S(=O)(=O)NC(=O)c1cc(F)c(OCc2ccc(Cl)c(Cl)c2)cc1F` [Example 3, 4-[(3,4-Dichlorobenzyl)oxy]-N-[(dimethylamino)sulfonyl]-2,5-difluorobenzamide], the IC50 is 1300 nM.

On to `CC(C)Oc1ncc(OCc2cc(F)c(C(=O)NS(=O)(=O)N3CCC3)cc2F)cc1Cl` [Example 13, N-(azetidin-1-ylsulfonyl)-4-{[(5-chloro-6-isopropoxypyridin-3-yl)oxy]methyl}-2,5-difluorobenzamide], for which the IC50 was 150 nM. For `CN(C)S(=O)(=O)NC(=O)c1ccc(OCc2ccc(Cl)c(Cl)c2)cc1` [Example 12, 4-[(3,4-dichlorobenzyl)oxy]-N-[(dimethylamino)sulfonyl]benzamide] the value was 2300 nM; for `CN(C)S(=O)(=O)NC(=O)c1cc(Cl)c(COc2cnc(C3CC3)c(Cl)c2)cc1F` [Example 14, 5-chloro-4-{[(5-chloro-6-cyclopropylpyridin-3-yl)oxyl]methyl}-N-[(dimethylamino)sulfonyl]-2-fluorobenzamide diethylamine salt], 420 nM; for `CC(C)Oc1ncc(OCc2cc(F)c(C(=O)NS(=O)(=O)N(C)C)cc2F)cc1Cl` [Example 1, 4-{[(5-Chloro-6-isopropoxypyridin-3-yl)oxy]methyl}-N-[(dimethylamino)sulfonyl]-2,5-difluorobenzamide], 240 nM.

As to `CN(C)S(=O)(=O)NC(=O)c1cc(F)c(COc2ccc(Cl)c(F)c2)cc1F` [Example 8, 4-[(4-chloro-3-fluorophenoxy)methyl]-N-[(dimethylamino)sulfonyl]-2,5-difluorobenzamide], the IC50 is 850 nM. As for `CN(C)S(=O)(=O)NC(=O)c1ccc(COc2ccc(C(F)(F)F)c(Cl)c2)cc1` [Example 5, 4-{[3-chloro-4-(trifluoromethyl)phenoxy]methyl}-N-[(dimethylamino)sulfonyl]benzamide], the figure is 920 nM; as for `CN(C)S(=O)(=O)NC(=O)c1ccc(COc2ccc(Cl)c(C(F)(F)F)c2)cc1` [Example 4, 4-{[4-chloro-3-(trifluoromethyl)phenoxy]methyl}-N-[(dimethylamino)sulfonyl]benzamide], 1500 nM; as for `CC(C)Oc1ncc(COc2cc(F)c(C(=O)NS(=O)(=O)N(C)C)cc2F)cc1Cl` [Example 7, 4-[(5-chloro-6-isopropoxypyridin-3-yl)methoxy]-N-[(dimethylamino)sulfonyl]-2,5-difluorobenzamide], 8300 nM. As for `O=C(NS(=O)(=O)N1CCC1)c1cc(Cl)c(COc2cnc(C3CC3)c(Cl)c2)cc1F` [Example 15, N-(azetidin-1-ylsulfonyl)-5-chloro-4-{[(5-chloro-6-cyclopropylpyridin-3-yl)oxy]methyl}-2-fluorobenzamide], the figure is 90 nM.
